Assays:
Test in all cases: relative viability (nuclei count vs DMSO), 5 days (fraction); higher = more cells survive
[1] = compound: CN(C)CC1=CC(=CC=C1)N=C(C2=CC=CC=C2)C3=C(NC4=C3C=CC(=C4)C(=O)N(C)C)O + CC(=O)c1c(C)c2cnc(Nc3ccc(N4CCNCC4)cn3)nc2n(C2CCCC2)c1=O [Palbociclib] (partner 0.5 µM)
Method in brief: (§1)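 Dosing by pin tool came one day after lung cancer cell lines were seeded in 1536-well plates, using either one drug or a fixed anchor-drug dose plus five library-drug doses (not always all listed) in √10 steps. After 5 days, nuclei were counted on 4× images. Relative viability is treated-well nuclei count divided by vehicle-well nuclei count, and values are medians of duplicate plates.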

[2] = compound: CN(C)CC1=CC(=CC=C1)N=C(C2=CC=CC=C2)C3=C(NC4=C3C=CC(=C4)C(=O)N(C)C)O + Cc1nc(NC(=O)N2CCC[C@H]2C(N)=O)sc1-c1ccnc(C(C)(C)C(F)(F)F)c1 [Alpelisib] (partner 2 µM)
Method in brief: as §1

[3] = compound: CN(C)CC1=CC(=CC=C1)N=C(C2=CC=CC=C2)C3=C(NC4=C3C=CC(=C4)C(=O)N(C)C)O + Nc1nc2[nH]cc(CCc3ccc(C(=O)N[C@@H](CCC(=O)O)C(=O)O)cc3)c2c(=O)[nH]1 [Pemetrexed] (partner 0.2 µM)
Method in brief: as §1

[4] = compound: CN(C)CC1=CC(=CC=C1)N=C(C2=CC=CC=C2)C3=C(NC4=C3C=CC(=C4)C(=O)N(C)C)O + O=C(c1cc(Cc2n[nH]c(=O)c3ccccc23)ccc1F)N1CCN(C(=O)C2CC2)CC1 [Olaparib] (partner 8 µM)
Method in brief: as §1

Cell Line | relative viability ([1]; first compound 0.08 µM) | relative viability ([1]; first compound 0.253 µM) | relative viability ([1]; first compound 0.8 µM) | relative viability ([1]; first compound 2.53 µM) | relative viability ([1]; first compound 8 µM) | relative viability ([2]; first compound 0.08 µM) | relative viability ([2]; first compound 0.253 µM) | relative viability ([2]; first compound 0.8 µM) | relative viability ([2]; first compound 2.53 µM) | relative viability ([2]; first compound 8 µM) | relative viability ([3]; first compound 0.08 µM) | relative viability ([3]; first compound 0.253 µM) | relative viability ([3]; first compound 0.8 µM) | relative viability ([3]; first compound 2.53 µM) | relative viability ([3]; first compound 8 µM) | relative viability ([4]; first compound 0.08 µM) | relative viability ([4]; first compound 0.253 µM) | relative viability ([4]; first compound 0.8 µM) | relative viability ([4]; first compound 2.53 µM) | relative viability ([4]; first compound 8 µM)
NCI-H3122 | 0.17 | 0.15 | 0.204 | 0.17 | 0.226 | 0.679 | 0.81 | 0.813 | 0.732 | 0.792 | 0.19 | 0.207 | 0.196 | 0.191 | 0.186 | 0.587 | 0.587 | 0.678 | 0.59 | 0.721
PC-3 [JPC-3] | 0.543 | 0.573 | 0.534 | 0.557 | 0.602 | 1.02 | 0.976 | 1.04 | 1.01 | 1.02 | 1.08 | 1.04 | 0.665 | 1.08 | 1.28 | 1.12 | 1.05 | 1.01 | 1.12 | 1.11
PC-14 | 0.474 | 0.412 | 0.635 | 0.614 | 0.537 | 0.92 | 0.865 | 0.962 | 0.924 | 0.837 | 0.13 | 0.13 | 0.147 | 0.15 | 0.135 | 0.325 | 0.212 | 0.23 | 0.294 | 0.312
RERF-LC-KJ | 1.08 | 1.05 | 1.01 | 0.992 | 0.982 | 0.838 | 0.843 | 0.732 | 0.785 | 0.928 | 0.473 | 0.453 | 0.491 | 0.443 | 0.499 | 0.971 | 0.906 | 0.882 | 0.9 | 0.904
SK-LU-1 | 0.335 | 0.363 | 0.34 | 0.362 | 0.369 | 0.883 | 1.01 | 0.992 | 0.87 | 0.597 | 1.01 | 0.941 | 1.03 | 0.961 | 0.781 | 0.483 | 0.47 | 0.516 | 0.431 | 0.385
SK-MES-1 | 0.325 | 0.277 | 0.357 | 0.305 | 0.343 | 0.876 | 0.883 | 0.716 | 0.851 | 0.875 | 0.961 | 0.881 | 1 | 0.89 | 0.897 | 0.634 | 0.698 | 0.588 | 0.629 | 0.522
SW 1573 | 0.323 | 0.42 | 0.367 | 0.34 | 0.317 | 0.787 | 0.711 | 0.651 | 0.802 | 0.642 | 0.823 | 0.83 | 0.987 | 0.792 | 0.768 | 0.362 | 0.416 | 0.419 | 0.523 | 0.377
UMC-11 | 0.351 | 0.311 | 0.326 | 0.306 | 0.291 | 0.972 | 0.882 | 1.12 | 0.923 | 0.968 | 0.779 | 0.752 | 0.839 | 0.714 | 0.736 | 0.37 | 0.368 | 0.344 | 0.371 | 0.349
